EC50 data for 23 compounds are collected here from patent US10301260B2, “Pyrrolidine GPR40 modulators” (BRISTOL-MYERS SQUIBB COMPANY, priority 2014, dated 2019).

The structures appear in SMILES notation. Counter-ions that a name gives are not always drawn.

What is called EC50 is the concentration needed to bring the measured effect to its halfway point.

The target of the assay is T1, hGPR40 (Homo sapiens, UniProt O14842).
T1 construct: 3xFLAG; expressed in transfected cells
T1 sequence (O14842 whole entry): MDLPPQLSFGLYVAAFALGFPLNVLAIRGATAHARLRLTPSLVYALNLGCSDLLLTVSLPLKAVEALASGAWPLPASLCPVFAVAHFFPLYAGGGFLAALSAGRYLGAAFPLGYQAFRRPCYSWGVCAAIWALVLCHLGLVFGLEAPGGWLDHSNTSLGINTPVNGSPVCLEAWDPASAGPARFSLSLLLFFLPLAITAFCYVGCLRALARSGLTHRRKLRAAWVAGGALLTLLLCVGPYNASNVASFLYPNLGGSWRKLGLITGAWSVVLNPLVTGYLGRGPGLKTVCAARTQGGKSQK
Nature of the assay: FDSS-based intracellular calcium assay (Human GRP40 In Vitro assay). The assay is classed as cell-based. The note with it: cells expressing GPR40, intracellular Ca2+ response. As to the method: FDSS-Based Intracellular Calcium Assay
Cell lines expressing GPR40 are generated using the pDEST-3xFLAG gene expression system and are cultured in culture medium comprising the following components: F12 (Gibco #11765), 10% lipid deprived fetal bovine serum, 250 μg/ml zeocin and 500 μg/ml G418. To conduct the fluorescent imaging plate reader (FLIPR)-based calcium flux assay to measure intracellular Ca^2+ response, cells expressing GPR40 are plated on 384 well plates (BD Biocoat #356697) at a density of 20,000 cells/20 μL medium per well in phenol red and serum-free DMEM (Gibco #21063-029) and incubated overnight. Using BD kit #s 80500-310 or -301, the cells are incubated with 20 μL per well of Hank's buffered salt solution with 1.7 mM probenecid and Fluo-3 at 37° C. for 30 min. Compounds are dissolved in DMSO and diluted to desired concentrations with assay buffer and added to the cells as 3× solution (20 μL per well). Run fluorescence/luminescence reader FDSS (Hamamatsu) to read intracellular Ca^2+ response.
The exemplified Examples disclosed below were tested in the Human GRP40 In Vitro assay described above and found having hGRP40 modulating activity.
On the technique in general: Calcium assays in cells follow changes in intracellular calcium, usually with a dye or a luminescent sensor.
Take `COc1ccc(F)c(-c2ccc(Cc3ccc(N4C[C@H](c5cccnc5)C[C@@H]4CC(=O)O)cc3)c(C)c2)c1` [Example 8, 2-((2R,4S)-1-(4-((2′-Fluoro-5′-methoxy-3-methyl-[1,1′-biphenyl]-4-yl)methyl)phenyl)-4-(pyridin-3-yl)pyrrolidin-2-yl)acetic Acid, HCl]: the EC50 stood at 0.094 µM. Take `COc1ccc(F)c(-c2ccc(Cc3ccc(N4CC(c5ccon5)CC4CC(=O)O)cc3)c(C)c2)c1` (single isomer, unassigned) [Example 11, Isomer 1, 2-(1-(4-((2′-Fluoro-5′-methoxy-3-methyl-[1,1′-biphenyl]-4-yl)methyl)phenyl)-4-(isoxazol-3-yl)pyrrolidin-2-yl)acetic Acid, HCl]: the concentration for a half-maximal effect (EC50) came to 8.1 µM.

Consider `COc1ccc(F)c(-c2ccc(Cc3ccc(N4C[C@H](c5ccccc5)C[C@@H]4CC(=O)O)cc3)c(C)c2)c1` [Example 1, 2-((2R,4S)-1-(4-((2′-Fluoro-5′-methoxy-3-methylbiphenyl-4-yl)methyl)phenyl)-4-phenylpyrrolidin-2-yl)acetic Acid, HCl], for which the half-maximal effective concentration (EC50) was 0.015 µM. To `COc1ccc(F)c(-c2ccc(Cc3ccc(N4CC(c5cc(C)no5)CC4CC(=O)O)cc3)c(C)c2)c1` (single isomer, unassigned) [Example 9, Isomer 3, 2-(1-(4-((2′-Fluoro-5′-methoxy-3-methyl-[1,1′-biphenyl]-4-yl)methyl)phenyl)-4-(3-methylisoxazol-5-yl)pyrrolidin-2-yl)acetic Acid, HCl] belongs 1.4 µM; to `COc1ccc(F)c(-c2ccc(Cc3ccc(N4CC(C#N)CC4CC(=O)O)cc3)c(C)c2)c1` (centres unmarked) [Example 2, 2-(4-Cyano-1-(4-((2′-fluoro-5′-methoxy-3-methylbiphenyl-4-yl)methyl)phenyl)pyrrolidin-2-yl)acetic Acid, TFA], 0.27 µM; to `COc1ccc(F)c(-c2ccc(Cc3ccc(N4CC(c5cc(C)no5)CC4CC(=O)O)cc3)c(C)c2)c1` (single isomer, unassigned) [Example 9, Isomer 4, 2-(1-(4-((2′-Fluoro-5′-methoxy-3-methyl-[1,1′-biphenyl]-4-yl)methyl)phenyl)-4-(3-methylisoxazol-5-yl)pyrrolidin-2-yl)acetic Acid, HCl], 3.5 µM.

On to `COc1ccc(F)c(-c2ccc(Cc3ccc(N4C[C@H](c5ccc(-c6ccccc6)cc5)C[C@@H]4CC(=O)O)cc3)c(C)c2)c1` [Example 4, 2-((2R,4S)-4-([1,1′-Biphenyl]-4-yl)-1-(4-((2′-fluoro-5′-methoxy-3-methyl-[1,1′-biphenyl]-4-yl)methyl)phenyl)pyrrolidin-2-yl)acetic Acid, HCl], for which the concentration for a half-maximal effect (EC50) is 0.21 µM. As to `COc1ccc(F)c(-c2ccc(Cc3ccc(N4CC(c5cc(C)no5)CC4CC(=O)O)cc3)c(C)c2)c1` (single isomer, unassigned) [Example 9, Isomer 1, 2-(1-(4-((2′-Fluoro-5′-methoxy-3-methyl-[1,1′-biphenyl]-4-yl)methyl)phenyl)-4-(3-methylisoxazol-5-yl)pyrrolidin-2-yl)acetic Acid, HCl], the EC50 is 0.15 µM.

Regarding `COc1ccc(F)c(-c2ccc(Cc3ccc(N4C[C@@H](c5ccccc5OC)C[C@@H]4CC(=O)O)cc3)c(C)c2)c1` (single isomer, unassigned) [Example 15, Isomer 2, HCl], the concentration giving a half-maximal response (EC50) was 0.061 µM. As for `COc1ccc(F)c(-c2ccc(Cc3ccc(N4C[C@H](C5CCCCC5)C[C@@H]4CC(=O)O)cc3)c(C)c2)c1` [Example 3, 2-((2R,4S)-4-Cyclohexyl-1-(4-((2′-fluoro-5′-methoxy-3-methyl-[1,1′-biphenyl]-4-yl)methyl)phenyl)pyrrolidin-2-yl)acetic Acid, HCl], the EC50 came to 0.013 µM. Consider `COc1ccc(F)c(-c2ccc(Cc3ccc(N4C[C@@H](N5CCCCC5)C[C@@H]4CC(=O)O)cc3)c(C)c2)c1` (single isomer, unassigned) [Example 13, Isomer 1], for which the concentration for a half-maximal effect (EC50) turned out to be 6.7 µM. `COCCO[C@@H]1C[C@H](CC(=O)O)N(c2ccc(Cc3ccc(-c4cc(OC)ccc4F)cc3C)cc2)C1` [Example 7, 2-((2R,4R)-1-(4-((2′-Fluoro-5′-methoxy-3-methyl-[1,1′-biphenyl]-4-yl)methyl)phenyl)-4-(2-methoxyethoxy)pyrrolidin-2-yl)acetic Acid, HCl]: the concentration giving a half-maximal response (EC50) amounted to 0.24 µM.

For the compound `COc1ccc(F)c(-c2ccc(Cc3ccc(N4C[C@@H](c5ccccn5)C[C@@H]4CC(=O)O)cc3)c(C)c2)c1` [Example 10, 2-((2R,4S)-1-(4-((2′-Fluoro-5′-methoxy-3-methyl-[1,1′-biphenyl]-4-yl)methyl)phenyl)-4-(pyridin-2-yl)pyrrolidin-2-yl)acetic Acid, HCl], the EC50 came to 1.4 µM. To `COc1ccc(F)c(-c2ccc(COc3ccc(N4C[C@H](c5ccccc5)C[C@@H]4CC(=O)O)cc3)c(C)c2)c1` [Example 16, 2-((2R,4S)-1-(4-((2′-Fluoro-5′-methoxy-3-methyl-[1,1′-biphenyl]-4-yl)methoxy)phenyl)-4-phenylpyrrolidin-2-yl)acetic Acid, HCl] belongs 1 µM; to `COCCCO[C@H]1CN(c2ccc(Cc3ccc(-c4cc(OC)ccc4F)cc3C)cc2)[C@@H](CC(=O)O)[C@@H]1C` [Example 17, 2-((2S,3S,4R)-1-(4-((2′-Fluoro-5′-methoxy-3-methyl-[1,1′-biphenyl]-4-yl)methyl)phenyl)-4-(3-methoxypropoxy)-3-methylpyrrolidin-2-yl)acetic Acid, HCl], 0.039 µM. To `COc1ccc(F)c(-c2ccc(Cc3ccc(N4C[C@H](N5CCCCC5)C[C@@H]4CC(=O)O)cc3)c(C)c2)c1` (single isomer, unassigned) [Example 13, Isomer 2] belongs 2.8 µM.

Regarding `COc1ccc(F)c(-c2ccc(Cc3ccc(N4C[C@@H](c5ccccc5)C[C@@H]4CC(=O)O)cc3)c(C)c2)c1` [Example 5, 2-((2R,4R)-1-(4-((2′-Fluoro-5′-methoxy-3-methyl-[1,1′-biphenyl]-4-yl)methyl)phenyl)-4-phenylpyrrolidin-2-yl)acetic Acid], the EC50 is 0.13 µM. To `COc1ccc(F)c(-c2ccc(Cc3ccc(N4C[C@](OC)(c5ccc(-c6ccccc6)cc5)C[C@@H]4CC(=O)O)cc3)c(C)c2)c1` [Example 6, 2-((2R,4R)-4-([1,1′-Biphenyl]-4-yl)-1-(4-((2′-fluoro-5′-methoxy-3-methyl-[1,1′-biphenyl]-4-yl)methyl)phenyl)-4-methoxypyrrolidin-2-yl)acetic Acid, HCl] belongs 0.077 µM; to `COc1ccc(F)c(-c2ccc(Cc3ccc(N4CC(c5cccc(Cl)c5)C[C@@H]4CC(=O)O)cc3)c(C)c2)c1` (single isomer, unassigned) [Example 12, Isomer 1, HCl], 0.16 µM. To `COc1ccc(F)c(-c2ccc(Cc3ccc(N4C[C@H](c5ccccc5OC)C[C@@H]4CC(=O)O)cc3)c(C)c2)c1` (single isomer, unassigned) [Example 15, Isomer 1, HCl] belongs 0.039 µM; to `COc1ccc(F)c(-c2ccc(Cc3ccc(N4CC(c5ccon5)CC4CC(=O)O)cc3)c(C)c2)c1` (single isomer, unassigned) [Example 11, Isomer 2, 2-(1-(4-((2′-Fluoro-5′-methoxy-3-methyl-[1,1′-biphenyl]-4-yl)methyl)phenyl)-4-(isoxazol-3-yl)pyrrolidin-2-yl)acetic Acid, HCl], 0.55 µM. With `COc1ccc(F)c(-c2ccc(Cc3ccc(N4CC(c5cccc(Cl)c5)C[C@@H]4CC(=O)O)cc3)c(C)c2)c1` (single isomer, unassigned) [Example 12, Isomer 2, HCl] the figure was 0.01 µM. On to `COc1ccc(F)c(-c2ccc(Cc3ccc(N4CC(c5cc(C)no5)CC4CC(=O)O)cc3)c(C)c2)c1` (single isomer, unassigned) [Example 9, Isomer 2, 2-(1-(4-((2′-Fluoro-5′-methoxy-3-methyl-[1,1′-biphenyl]-4-yl)methyl)phenyl)-4-(3-methylisoxazol-5-yl)pyrrolidin-2-yl)acetic Acid, HCl], for which the EC50 turned out to be 2.2 µM.
